Experimental findings from article PMC7515716 (2020) are described below.

For assay [1], the system named is xpt/pbuE*6U guanine riboswitch (RNA, riboswitch) AAAUUAAAUAGCUAUUAUCACGAUUUUUAUAAUCGCGUGGAUAUGGCACGCAAGUUUCUACCGGGCACCGUAAAUGUCCGACUAAAAAUCCUGAUUACAAAAUUUGUUUAUGACAUUUUUUGUAAUCAGGAUUUUUUAUUUAUCAAAACAUUUAAGUAAAGGAGUUUGUUAUGUUUUUUUUGGCCAGUGAAUUCGAGCUCGGUACCCGGGGAUCCUCUAGAAAUAUGGAUUACUUGGUAGAACAGCAAUCUACUCGACCUGCAGGCAUGCAAGCUUGGCGUAAUCAUGGUCAUAGCUGUUUCCUGUGUUUAUCCGCUCACAAUUCCACACAACAUACGAGCCGGAAGCAUAAAG
Description: SPRINT: multiple-turnover transcription read-through, Cas13a fluorescence. As to conditions: 70 mM Na+ (NaCl), 2.5 mM Mg2+.

For assay [2], the system named is ribD/pbuE*7U FMN riboswitch (RNA, riboswitch) AAAUUAAAUAGCUAUUAUCACGAUUUUUCGGGGCAGGGUGGAAAUCCCGACCGGCGGUAGUAAAGCACAUUUGCUUUAGAGCCCGUGACCCGUGUGCAUAAGCACGCGGUGGAUUCAGUUUAAGCUGAAGCCGACAGUGAAAGUCUGGAUGGGAGAAAAAUCCUGAUUACAAAAUUUGUUUAUGACAUUUUUUGUAAUCAGGAUUUUUUUAUUUAUCAAAACAUUUAAGUAAAGGAGUUUGUUAUGUUUUUUUUGGCCAGUGAAUUCGAGCUCGGUACCCGGGGAUCCUCUAGAAAUAUGGAUUACUUGGUAGAACAGCAAUCUACUCGACCUGCAGGCAUGCAAGCUUGGCGUAAUCAUGGUCAUAGCUGUUUCCUGUGUUUAUCCGCUCACAAUUCCACACAACAUACGAGCCGGAAGCAUAAAG
The assay is described as above. As to conditions: 70 mM Na+ (NaCl), 10 mM Mg2+; SPRINT buffer, 37 °C; low-affinity response.

SMILES strings stand for the structures.

Consider `CNc1nc2[nH]cnc2c(=O)[nH]1`, for which the binding entry in assay [1] was “weak”.

In the case of `Cc1cc2nc3c(=O)[nH]c(=O)nc-3n(C[C@H](O)[C@H](O)[C@H](O)COP(=O)(O)OP(=O)(O)OC[C@H]3O[C@@H](n4cnc5c(N)ncnc54)[C@H](O)[C@@H]3O)c2cc1C`, in assay [2], the binding result is listed as “weak”.
